Test results: the NIST ThermoML archive (doi:10.1021/je060411g)

Assay: molar heat capacity at constant pressure
Conditions: 101.33 kPa

CCC(C)(C)O [2-methylbutan-2-ol]
Conditions | molar heat capacity at constant pressure [J/K/mol]
84.18 K, Crystal 3 | 59.96
84.41 K, Crystal 3 | 60.87
85.57 K, Crystal 3 | 65.73
86.62 K, Crystal 3 | 61.65
86.85 K, Crystal 3 | 61.55
87.94 K, Crystal 3 | 66.53
89.04 K, Crystal 3 | 62.98
89.26 K, Crystal 3 | 62.98
90.33 K, Crystal 3 | 68.13
91.86 K, Crystal 3 | 64.6
92.09 K, Crystal 3 | 64.56
93.17 K, Crystal 3 | 69.93
94.67 K, Crystal 3 | 66.27
94.91 K, Crystal 3 | 66.32
95.99 K, Crystal 3 | 71.8
97.49 K, Crystal 3 | 67.95
97.72 K, Crystal 3 | 68.07
98.82 K, Crystal 3 | 73.51
100.31 K, Crystal 3 | 70.24
100.54 K, Crystal 3 | 70.6
101.65 K, Crystal 3 | 75.44
103.12 K, Crystal 3 | 72.36
103.36 K, Crystal 3 | 72.54
104.48 K, Crystal 3 | 76.92
105.95 K, Crystal 3 | 73.89
106.18 K, Crystal 3 | 74.04
107.28 K, Crystal 3 | 78.03
108.74 K, Crystal 3 | 75.59
108.97 K, Crystal 3 | 75.81
110.03 K, Crystal 3 | 79.77
111.48 K, Crystal 3 | 77.47
111.7 K, Crystal 3 | 77.66
112.73 K, Crystal 3 | 81.52
114.17 K, Crystal 3 | 79.5
114.38 K, Crystal 3 | 79.61
115.38 K, Crystal 3 | 83.05
116.8 K, Crystal 3 | 81.46
117.02 K, Crystal 3 | 81.54
117.99 K, Crystal 3 | 84.42
119.4 K, Crystal 3 | 83.36
119.61 K, Crystal 3 | 83.37
120.55 K, Crystal 3 | 85.98
121.95 K, Crystal 3 | 85.58
122.15 K, Crystal 3 | 85.21
123.09 K, Crystal 3 | 87.29
124.47 K, Crystal 3 | 87.36
124.66 K, Crystal 3 | 87.39
125.59 K, Crystal 3 | 88.61
126.95 K, Crystal 3 | 89.35
127.13 K, Crystal 3 | 89.35
128.06 K, Crystal 3 | 90.2
129.39 K, Crystal 3 | 91.6
129.57 K, Crystal 3 | 91.64
130.5 K, Crystal 3 | 91.83
131.8 K, Crystal 3 | 96.05
131.98 K, Crystal 3 | 95.7
132.91 K, Crystal 3 | 94.22
134.19 K, Crystal 3 | 97.24
134.35 K, Crystal 3 | 97.17
135.29 K, Crystal 3 | 94.95
136.54 K, Crystal 3 | 98.99
136.7 K, Crystal 3 | 98.94
137.65 K, Crystal 3 | 96.49
138.86 K, Crystal 3 | 102.38
139.01 K, Crystal 3 | 102.19
139.98 K, Crystal 3 | 98.2
141.14 K, Crystal 3 | 106.32
141.29 K, Crystal 3 | 106.03
142.29 K, Crystal 3 | 99.86
143.38 K, Crystal 3 | 112.82
143.53 K, Crystal 3 | 110.46
144.58 K, Crystal 3 | 101.73
148.39 K, Crystal 2 | 89.39
148.47 K, Crystal 2 | 107.13
149.08 K, Crystal 2 | 105.46
150.5 K, Crystal 2 | 120.91
150.6 K, Crystal 2 | 120.49
151.3 K, Crystal 2 | 107.39
152.65 K, Crystal 2 | 120.48
152.74 K, Crystal 2 | 120.32
153.5 K, Crystal 2 | 109.42
154.78 K, Crystal 2 | 120.35
154.87 K, Crystal 2 | 120.25
155.66 K, Crystal 2 | 111.51
156.9 K, Crystal 2 | 120.17
156.98 K, Crystal 2 | 120.02
157.81 K, Crystal 2 | 113.29
159.02 K, Crystal 2 | 121.07
159.09 K, Crystal 2 | 120.89
159.95 K, Crystal 2 | 115.97
161.12 K, Crystal 2 | 121.73
161.19 K, Crystal 2 | 121.42
162.06 K, Crystal 2 | 118.39
163.23 K, Crystal 2 | 122.32
163.28 K, Crystal 2 | 121.93
164.16 K, Crystal 2 | 120.83
165.34 K, Crystal 2 | 123.02
165.36 K, Crystal 2 | 122.85
166.24 K, Crystal 2 | 123.44
167.44 K, Crystal 2 | 123.55
167.45 K, Crystal 2 | 123.69
168.29 K, Crystal 2 | 126.14
169.53 K, Crystal 2 | 124.34
169.57 K, Crystal 2 | 124.68
170.33 K, Crystal 2 | 128.89
171.63 K, Crystal 2 | 125.44
171.7 K, Crystal 2 | 125.8
172.35 K, Crystal 2 | 131.56
173.74 K, Crystal 2 | 126.82
173.85 K, Crystal 2 | 127.21
174.35 K, Crystal 2 | 134.03
175.89 K, Crystal 2 | 128.48
176.02 K, Crystal 2 | 128.7
176.33 K, Crystal 2 | 136.74
178.07 K, Crystal 2 | 130.33
178.22 K, Crystal 2 | 130.54
178.3 K, Crystal 2 | 139.33
180.24 K, Crystal 2 | 141.75
180.29 K, Crystal 2 | 131.97
180.44 K, Crystal 2 | 132.57
182.18 K, Crystal 2 | 143.44
182.53 K, Crystal 2 | 133.47
182.64 K, Crystal 2 | 134.58
184.1 K, Crystal 2 | 145.88
184.82 K, Crystal 2 | 137.28
186.01 K, Crystal 2 | 147.63
186.94 K, Crystal 2 | 141.12
187.9 K, Crystal 2 | 148.63
189 K, Crystal 2 | 143.98
189.78 K, Crystal 2 | 150.78
191 K, Crystal 2 | 146.05
191.66 K, Crystal 2 | 151.3
192.96 K, Crystal 2 | 149.37
193.52 K, Crystal 2 | 152.71
194.88 K, Crystal 2 | 150.75
195.38 K, Crystal 2 | 154.88
196.78 K, Crystal 2 | 151.94
197.23 K, Crystal 2 | 154.68
198.65 K, Crystal 2 | 154.12
199.07 K, Crystal 2 | 156.86
199.87 K, Crystal 2 | 155.64
200.5 K, Crystal 2 | 154.04
200.9 K, Crystal 2 | 157.7
201.17 K, Crystal 2 | 157.49
202.35 K, Crystal 2 | 156.44
202.62 K, Crystal 2 | 157.61
204.18 K, Crystal 2 | 158.51
204.44 K, Crystal 2 | 159.27
206 K, Crystal 2 | 158.34
206.25 K, Crystal 2 | 159.14
207.81 K, Crystal 2 | 159.84
208.06 K, Crystal 2 | 160.6
209.61 K, Crystal 2 | 159.89
209.85 K, Crystal 2 | 161.82
211.4 K, Crystal 2 | 158.72
211.64 K, Crystal 2 | 164.89
217.83 K, Crystal 1 | 141.33
218.04 K, Crystal 1 | 144.15
219.66 K, Crystal 1 | 143.15
219.86 K, Crystal 1 | 142.88
221.49 K, Crystal 1 | 143.51
221.68 K, Crystal 1 | 143.74
223.31 K, Crystal 1 | 144.13
223.5 K, Crystal 1 | 144.13
225.12 K, Crystal 1 | 144.75
225.31 K, Crystal 1 | 144.76
226.93 K, Crystal 1 | 145.48
227.12 K, Crystal 1 | 145.55
228.73 K, Crystal 1 | 146.48
228.92 K, Crystal 1 | 146.48
230.52 K, Crystal 1 | 147.54
230.71 K, Crystal 1 | 147.5
232.31 K, Crystal 1 | 148.37
232.49 K, Crystal 1 | 148.43
234.08 K, Crystal 1 | 149.45
234.27 K, Crystal 1 | 149.58
235.86 K, Crystal 1 | 150.05
236.04 K, Crystal 1 | 150.15
237.63 K, Crystal 1 | 151.12
237.81 K, Crystal 1 | 151.14
239.39 K, Crystal 1 | 152.5
239.57 K, Crystal 1 | 152.39
240.92 K, Crystal 1 | 153.28
241.15 K, Crystal 1 | 153.19
242.15 K, Crystal 1 | 153.94
242.9 K, Crystal 1 | 154.53
243.54 K, Crystal 1 | 154.92
244.65 K, Crystal 1 | 155.65
245.28 K, Crystal 1 | 156.32
246.39 K, Crystal 1 | 157.17
247.02 K, Crystal 1 | 157.69
248.12 K, Crystal 1 | 159.18
249.84 K, Crystal 1 | 160.99
251.56 K, Crystal 1 | 163.84
253.26 K, Crystal 1 | 168.27
